From patent US7880007B2, “Bicyclic substituted phenyl piperidine modulators of muscarinic receptors” (Vertex Pharmaceuticals Incorporated, priority 2004, dated 2011)

How the values were obtained:
Assay type in all cases: cell-based
[1] = target: T1, M1 muscarinic receptor (Homo sapiens, UniProt P11229); assay: Functional mobilization of intracellular calcium (FLIPR), M1-CHO cells; details: for Emax: 100% efficacy = maximum response obtained with the Carbachol control; for M1 Activity: M1-CHO cells, calcium mobilization (FLIPR)
T1 construct: expressed in transfected cells; host or cells: CHO (M1-CHO)
T1 sequence (P11229 1-460): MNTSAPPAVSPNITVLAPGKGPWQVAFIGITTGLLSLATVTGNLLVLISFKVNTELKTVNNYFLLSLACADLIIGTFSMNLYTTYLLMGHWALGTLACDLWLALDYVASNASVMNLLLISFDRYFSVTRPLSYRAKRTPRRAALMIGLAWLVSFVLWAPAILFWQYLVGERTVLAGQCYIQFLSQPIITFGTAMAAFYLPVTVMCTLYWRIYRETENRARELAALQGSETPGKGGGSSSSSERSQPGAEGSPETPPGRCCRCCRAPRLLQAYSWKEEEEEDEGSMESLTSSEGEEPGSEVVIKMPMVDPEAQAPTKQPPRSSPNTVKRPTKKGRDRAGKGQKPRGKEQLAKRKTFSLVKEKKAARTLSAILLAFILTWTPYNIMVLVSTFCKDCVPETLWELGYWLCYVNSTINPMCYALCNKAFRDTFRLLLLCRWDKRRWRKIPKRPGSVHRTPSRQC
How it was run: (§1)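 FLIPR fluorescence (ex 488, em 540 nm) recorded 60 sec after compound addition to dye-loaded CHO cells. Agonist mode: compound alone. Antagonist mode: 15 min compound pre-incubation, then carbachol at EC80, or co-application. Efficacy expressed as % of maximal carbachol response.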

[2] = target: T2, M2 muscarinic receptor (Homo sapiens, UniProt P08172); assay: Functional mobilization of intracellular calcium (FLIPR), M2-CHO cells; details: for Emax: 100% efficacy = maximum response obtained with the Carbachol control; for M2 Activity: M2-CHO cells, calcium mobilization (FLIPR)
T2 construct: expressed in transfected cells; host or cells: CHO (M2-CHO)
T2 sequence (P08172 1-466): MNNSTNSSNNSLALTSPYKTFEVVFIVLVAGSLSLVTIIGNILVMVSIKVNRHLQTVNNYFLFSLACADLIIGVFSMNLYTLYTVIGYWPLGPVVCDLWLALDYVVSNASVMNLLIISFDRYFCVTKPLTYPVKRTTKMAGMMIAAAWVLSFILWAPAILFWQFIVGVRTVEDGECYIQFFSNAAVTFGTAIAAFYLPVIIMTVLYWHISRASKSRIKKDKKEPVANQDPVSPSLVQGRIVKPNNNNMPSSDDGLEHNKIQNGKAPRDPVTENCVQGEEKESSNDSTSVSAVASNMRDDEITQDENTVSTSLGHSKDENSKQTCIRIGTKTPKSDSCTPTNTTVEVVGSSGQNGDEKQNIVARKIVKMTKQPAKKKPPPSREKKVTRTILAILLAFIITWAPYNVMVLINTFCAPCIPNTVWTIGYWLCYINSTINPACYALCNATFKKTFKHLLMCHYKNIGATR
How it was run: as §1

[3] = target: T3, M3 muscarinic receptor (Homo sapiens, UniProt P20309); assay: Functional mobilization of intracellular calcium (FLIPR), M3-CHO cells; details: for Emax: 100% efficacy = maximum response obtained with the Carbachol control; for M3 Activity: M3-CHO cells, calcium mobilization (FLIPR)
T3 construct: expressed in transfected cells; host or cells: CHO (M3-CHO)
How it was run: as §1

[4] = target: T4, M4 muscarinic receptor (Homo sapiens, UniProt P08173); assay: Functional mobilization of intracellular calcium (FLIPR), M4-CHO cells; details: for Emax: 100% efficacy = maximum response obtained with the Carbachol control; for M4 Activity: M4-CHO cells, calcium mobilization (FLIPR)
T4 construct: expressed in transfected cells; host or cells: CHO (M4-CHO)
T4 sequence (P08173 1-479): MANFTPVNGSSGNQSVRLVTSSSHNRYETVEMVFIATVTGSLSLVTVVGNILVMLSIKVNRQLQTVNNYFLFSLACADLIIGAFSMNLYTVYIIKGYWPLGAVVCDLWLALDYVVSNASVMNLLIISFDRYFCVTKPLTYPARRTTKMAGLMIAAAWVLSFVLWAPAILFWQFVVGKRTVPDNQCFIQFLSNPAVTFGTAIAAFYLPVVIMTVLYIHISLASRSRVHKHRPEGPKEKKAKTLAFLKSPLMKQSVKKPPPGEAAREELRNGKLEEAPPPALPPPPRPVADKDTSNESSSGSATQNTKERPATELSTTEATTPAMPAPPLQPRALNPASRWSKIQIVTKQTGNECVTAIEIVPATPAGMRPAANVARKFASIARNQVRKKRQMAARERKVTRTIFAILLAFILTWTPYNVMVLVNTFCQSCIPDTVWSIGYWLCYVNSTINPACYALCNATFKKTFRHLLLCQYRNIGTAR
How it was run: as §1

T3 sequence (P20309 whole entry): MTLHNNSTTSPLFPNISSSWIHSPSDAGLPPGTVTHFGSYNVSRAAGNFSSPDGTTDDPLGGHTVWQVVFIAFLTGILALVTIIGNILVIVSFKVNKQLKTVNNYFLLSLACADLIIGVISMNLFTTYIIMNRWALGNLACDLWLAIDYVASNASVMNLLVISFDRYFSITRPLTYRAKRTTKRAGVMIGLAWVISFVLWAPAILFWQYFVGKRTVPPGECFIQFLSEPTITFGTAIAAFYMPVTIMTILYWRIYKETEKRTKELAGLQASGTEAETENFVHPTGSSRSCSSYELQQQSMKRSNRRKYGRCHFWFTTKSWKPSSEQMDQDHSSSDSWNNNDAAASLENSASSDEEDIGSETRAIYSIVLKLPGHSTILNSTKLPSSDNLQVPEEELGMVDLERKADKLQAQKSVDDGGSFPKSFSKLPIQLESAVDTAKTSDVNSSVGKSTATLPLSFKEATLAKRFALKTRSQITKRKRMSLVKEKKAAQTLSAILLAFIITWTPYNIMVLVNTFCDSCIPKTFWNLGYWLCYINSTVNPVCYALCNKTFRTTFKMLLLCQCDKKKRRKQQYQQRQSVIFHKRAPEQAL

Compound	Emax [1] [%]	Emax [2] [%]	Emax [3] [%]	Emax [4] [%]	M1 Activity [1]	M2 Activity [2]	M3 Activity [3]	M4 Activity [4]
COc1ccc(C(C)=O)cc1C1CCN([C@H]2C[C@H]3CC[C@H]2C3)CC1 [Compound 321]	< 25	< 25	< 25	< 25	+ (activity was measured to be greater than 5.0 μM)	+ (activity was measured to be greater than 5.0 μM)	+ (activity was measured to be greater than 5.0 μM)	+ (activity was measured to be greater than 5.0 μM)
CCOC(=O)N1C2CCC1CC(N1CCC(c3cc(OC)cc(F)c3F)CC1)C2 (stereo not drawn) [Compound 322]	25 to 100	< 25	< 25	25 to 100	+++ (activity was measured to be less than 1.0 μM)	++ (activity was measured to be from 1.0 μM to 5.0 μM)	+ (activity was measured to be greater than 5.0 μM)	+++ (activity was measured to be less than 1.0 μM)
COc1ccc(-c2ccc(C(=O)Nc3nccs3)cc2)cc1C1CCN(C2CCCCC2)CC1 [Compound 323]	< 25	< 25	< 25	25 to 100	+ (activity was measured to be greater than 5.0 μM)	+ (activity was measured to be greater than 5.0 μM)	+ (activity was measured to be greater than 5.0 μM)	++ (activity was measured to be from 1.0 μM to 5.0 μM)
CCC1(O)CCC(N2CCC(c3cc(Cl)ccc3OC)CC2)CC1 (stereo not drawn) [Compound 324]	< 25	< 25	< 25	25 to 100	+ (activity was measured to be greater than 5.0 μM)	+ (activity was measured to be greater than 5.0 μM)	+ (activity was measured to be greater than 5.0 μM)	+++ (activity was measured to be less than 1.0 μM)
COc1ccc(C(C)(C)C)cc1C1CCN([C@@H]2C[C@@H]3CC[C@H]2C3)CC1 [Compound 325, 1-((1S,2R,4R)-bicyclo[2.2.1]heptan-2-yl)-4-(5-tert-butyl-2-methoxy-phenyl) piperidine]	25 to 100	25 to 100	25 to 100	25 to 100	++ (activity was measured to be from 1.0 μM to 5.0 μM)	+ (activity was measured to be greater than 5.0 μM)	+ (activity was measured to be greater than 5.0 μM)	++ (activity was measured to be from 1.0 μM to 5.0 μM)
COc1ccc(Cl)cc1C1(F)CCN(CC2CC3CCC2C3)CC1 (stereo not drawn) [Compound 326]	25 to 100	25 to 100	< 25	25 to 100	+ (activity was measured to be greater than 5.0 μM)	+ (activity was measured to be greater than 5.0 μM)	+ (activity was measured to be greater than 5.0 μM)	++ (activity was measured to be from 1.0 μM to 5.0 μM)
CCOC(=O)N1C2CCC1CC(N1CCC(c3cc(F)ccc3OC)CC1)C2 (stereo not drawn) [Compound 330]	25 to 100	25 to 100	< 25	25 to 100	+++ (activity was measured to be less than 1.0 μM)	+++ (activity was measured to be less than 1.0 μM)	+ (activity was measured to be greater than 5.0 μM)	+++ (activity was measured to be less than 1.0 μM)
CCOC(=O)N1C2CCC1CC(N1CCC(F)(c3cc(F)ccc3OC)CC1)C2 (stereo not drawn) [Compound 334]	25 to 100	< 25	< 25	25 to 100	+++ (activity was measured to be less than 1.0 μM)	+ (activity was measured to be greater than 5.0 μM)	+ (activity was measured to be greater than 5.0 μM)	+++ (activity was measured to be less than 1.0 μM)

Now from value to molecule, other results behind:

Emax [1] [%]	Emax [2] [%]	Emax [3] [%]	Emax [4] [%]	Compound	M1 Activity [1]	M2 Activity [2]	M3 Activity [3]	M4 Activity [4]
25 to 100	25 to 100	< 25	25 to 100	CCCC1CCC(N2CCC(F)(c3cc(F)ccc3OC)CC2)CC1 (stereo not drawn) [Compound 327]	++ (activity was measured to be from 1.0 μM to 5.0 μM)	+ (activity was measured to be greater than 5.0 μM)	+ (activity was measured to be greater than 5.0 μM)	++ (activity was measured to be from 1.0 μM to 5.0 μM)
< 25	< 25	< 25	25 to 100	CNC(=O)c1ccc(-c2ccc(OC)c(C3CCN(C4C[C@H]5CC[C@H]4C5)CC3)c2)cc1Cl (stereo partly drawn) [Compound 328]	+ (activity was measured to be greater than 5.0 μM)	+ (activity was measured to be greater than 5.0 μM)	+ (activity was measured to be greater than 5.0 μM)	++ (activity was measured to be from 1.0 μM to 5.0 μM)
25 to 100	< 25	–	25 to 100	Cc1ccc(C)c(C2CCN(CC3CC4C=CC3C4)CC2)c1 (stereo not drawn) [Compound 329]	+ (activity was measured to be greater than 5.0 μM)	+ (activity was measured to be greater than 5.0 μM)	+ (activity was measured to be greater than 5.0 μM)	++ (activity was measured to be from 1.0 μM to 5.0 μM)
25 to 100	< 25	< 25	25 to 100	COc1ccc(Cl)cc1C1CCN(C2CCC3(CC2)OCCO3)CC1 [Compound 331, 4-(5-chloro-2-methoxyphenyl)-1-(1,4-dioxaspiro[4.5]decan-8-yl)piperidine]	+ (activity was measured to be greater than 5.0 μM)	+ (activity was measured to be greater than 5.0 μM)	+ (activity was measured to be greater than 5.0 μM)	+++ (activity was measured to be less than 1.0 μM)
25 to 100	< 25	< 25	25 to 100	COc1ccc(-c2ccc(S(=O)(=O)N3CCCC3)cc2)cc1C1CCN(C2CCCCC2)CC1 [Compound 332]	+ (activity was measured to be greater than 5.0 μM)	+ (activity was measured to be greater than 5.0 μM)	+ (activity was measured to be greater than 5.0 μM)	+ (activity was measured to be greater than 5.0 μM)
< 25	< 25	< 25	25 to 100	Cc1c(C2CCN(C3CCOCC3)CC2)cccc1C(F)(F)F [Compound 333]	+ (activity was measured to be greater than 5.0 μM)	+ (activity was measured to be greater than 5.0 μM)	+ (activity was measured to be greater than 5.0 μM)	++ (activity was measured to be from 1.0 μM to 5.0 μM)
